One compound from patent US12169196B2, “Human iPSC-based drug testing platform for muscular dystrophy” (The Johns Hopkins University, priority 2019, dated 2024) can be followed below.

SMILES strings stand for the structures.

In experiment [1] the test system is MEF2C. The experiment can be described thus: MEF2C protein expression by Western blot and immunocytochemistry in D2 myoblasts. The format is cell-based, human. The source says:
FIG. 2C: Representative image of ginsenoside Rd-treated myoblasts labeled by MyHC. FIG. 2E Cell average length dose-response curve of ginsenoside Rd (FIGS. 2E-2F) Western blot quantification of MEF2C protein level post Saponin Q. and ginsenoside Rd treatment alongside healthy hiPSC derived myoblasts control and DMSO negative controls, *P 5 0.05, n=3. FIG. 2G: Quantification of MEF2C expressing nuclei of saponin Q. and ginsenoside Rd-treated D2 myoblasts, n=3, *P 5 0.05. (Data=Mean±SEM, one-way ANOVA with Dunnett's multiple comparison test with DMSO negative control).
Whole-cell extracts were prepared by lysing cells on plate with RIPA buffer (CST) supplemented by proteinase inhibitor and phosphatase inhibitor cocktail (CST). Western blotting was performed according to the standard protocol using precast NuPAGE (4-12%) Bis-Tris gel (Invitrogen). Protein transfer was performed with the Bio-Rad turbo or wet/tank blotting system. Nitrocellulose membranes were incubated with primary antibodies overnight at 4° C. Membranes were then incubated with a secondary IRDye 800 conjugated anti-rabbit IgG, or Alexa Fluor 680 anti-mouse IgG and proteins were visualized and quantified using the LI-COR Odyssey Infrared Imaging System (LI-COR). Primary antibodies applied in this study were all purchased from Cell Signaling Technology except for the MEF2C antibody, which was from Sigma.
(A western blot detects proteins with antibodies after separation by electrophoresis.)

For experiment [2], the system named is ERK1/2. The experiment can be described thus: Western blot of phosphorylated ERK 1/2 in D2 myoblasts. The following applies: ginsenoside 25 μM or FLT3 recombinant protein 100 ng/ml, 30 min. The format is cell-based, human.
Description: FIG. 3C, 3E: Quantification of western blot of phosphorylated ERK 1/2 (p-ERK 1/2) in D2 myoblasts treated with ginsenoside (25 μM), FLT3 recombinant protein (100 ng/ml) or DMSO for 30 min, n=4, *P≤0.05. […] (Data=Mean±SEM, FIGS. 3D, 3E: one-way ANOVA with Dunnett's multiple comparison test with DMSO negative control, FIG. 3G: one-way ANOVA with Tukey's multiple comparison test).
Whole-cell extracts were prepared by lysing cells on plate with RIPA buffer (CST) supplemented by proteinase inhibitor and phosphatase inhibitor cocktail (CST). […] Protein transfer was performed with the Bio-Rad turbo or wet/tank blotting system. Nitrocellulose membranes were incubated with primary antibodies overnight at 4° C. Membranes were then incubated with a secondary IRDye 800 conjugated anti-rabbit IgG, or Alexa Fluor 680 anti-mouse IgG and proteins were visualized and quantified using the LI-COR Odyssey Infrared Imaging System (LI-COR). Primary antibodies applied in this study were all purchased from Cell Signaling Technology except for the MEF2C antibody, which was from Sigma.
Experiment [3] concerns mdx^5cv mice. The experiment can be described thus: Quadriceps strength and susceptibility to injury. The format is in vivo, mouse. The text has this: All animal experiments were approved by the Institutional Animal Care and Use Committee (IACUC) of The Johns Hopkins University, School of Medicine (Baltimore, Maryland). Mdx^5cv (B6Ros.Cg-Dmdmdx-5Cv/J) were obtained from The Jackson Laboratory. Mice were maintained in a 12-h light cycle (7 am-7 pm) with ad libitum access to food and water. […] Ginsenoside Rd was suspended in saline containing 10% 1,3-propanediol as vector.
In vivo muscle physiology. Quadriceps strength (maximal isometric torque) and susceptibility to injury were assessed in vivo as described (69, 70). Briefly, animals were anaesthetized with 3-5% isoflurane and placed in a supine position. The thigh was stabilized and the ankle was secured on to a lever arm. The knee was aligned with the axis of the stepper motor (model T8904, NMB Technologies, Chatsworth, CA, USA) and a torque sensor (QWFK-8M, Sensotec, Columbus, OH, USA), and the femoral nerve was stimulated via subcutaneous needle electrodes. A custom program based on commercial software (LabView version 8.5, National Instruments, Austin, TX, USA) was used to synchronize contractile activation and the onset of forced knee flexion. The position of the leg that results in optimal muscle length has been previously described and maximum isometric torque was measured in Newton-millimeters (Nmm). Injury was induced by 15 forced lengthenings (knee flexion) superimposed onto maximal quadriceps contractions through a 40-100 degree arc of motion (with full knee extension considered 0 deg) spaced 1 min apart. Loss in maximal isometric torque was measured 5 min after the last lengthening contraction. Since the knee position, lever arm, and moment arm of the muscle are unchanged between tests, maximal isometric torque reflects maximal isometric muscle force.

In the case of `CC(C)=CCC[C@](C)(O[C@@H]1O[C@H](CO)[C@@H](O)[C@H](O)[C@H]1O)[C@H]1CC[C@]2(C)[C@@H]1[C@H](O)C[C@@H]1[C@@]3(C)CC[C@H](O[C@@H]4O[C@H](CO)[C@@H](O)[C@H](O)[C@H]4O[C@@H]4O[C@H](CO)[C@@H](O)[C@H](O)[C@H]4O)C(C)(C)[C@@H]3CC[C@]12C` [ginsenoside Rd], the “levels of MEF2C protein expression (Western blot)” value in experiment [1] (vs DMSO) is “increased”. Moreover, in experiment [1] (vs vector control), the “MEF2C expressing cells (immunocytochemistry)” value is “more MEF2C expressing cells”. For the same compound, in experiment [2], the “ERK1/2 activation (p-ERK 1/2)” value is given as “activated”. The “loss in muscle force after contraction-induced injury, quadriceps” value in experiment [3] came to 56±4.8%. Besides, in experiment [3] (compared with sham control), the “maximal isometric force generated by quadriceps muscle” value is “no significant difference”.
